In patent publication US9115092B2, “Substituted quinazoline and pyrido-pyrimidine derivatives” (Asana Biosciences, LLC, priority 2010, dated 2015):

What was measured:
[1] = target: T1, PI3Kα (wild-type), P110/P85α (Homo sapiens, UniProt P42336); test: PI3 Kinase TR-FRET assay, PI3Kα (wild-type); format: biochemical
T1 construct: made in house; host or cells: SF9 insect cells
In short: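 TR-FRET read-out of PIP3 formation via biotin-PIP3 displacement (665/615 nm ratio) gave IC50 curves. Enzyme: 5 ng wild-type P110/P85α from Sf9 cells, 60 min RT with compound and PIP2 (MgCl2 40 mM, DTT 5 mM), then 30 min RT kinase reaction at 10 μM ATP and 10 μM PIP2.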

mTOR kinase = target: T2, mTOR kinase (Homo sapiens, UniProt P42345); test: mTOR kinase TR-FRET assay; format: biochemical; settings: read-out: mTO R
T2 construct: purchased Millipore, USA
In short: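 TR-FRET read-out (340 nm excitation, 615/665 nm emission) of Thr389 phosphorylation of a ULight-labeled p70 S6K peptide (50 nM) by mTOR, 20 μM ATP, 60 min room temperature after 60 min compound preincubation. Buffer HEPES pH 7.5 with MnCl2, EGTA; IC50 by sigmoidal dose-response.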

PC3 cells = test: XTT assay for cell viability, PC3 cells; format: cell-based, human; settings: Homo sapiens, PC-3, cell viability
Description: Using a commercial kit from Sigma Aldrich (Catalog #X34251) and following its protocol, PC3 cells in the log phase of growth were employed and seeded at an optimal density of 1000 cell/well on to 96 well plates and incubated for 24 h followed by the addition of compounds of formula (I) in serial dilutions. Compound dilutions were made in DMSO. The cells were incubated with the compounds of formula (I) for 96 h and XTT tetrazolium dye (Sigma, USA) was subsequently added and incubated at 37° C. After the color formation, absorbance was measured at 465 nm in a Spectramax® Gemini spectrophotometer. EC50 values were calculated using a sigmoidal dose response curve fit in GraphPad Prism® v5 software. The tested compounds of formula (I) which caused inhibition of PC3 cell proliferation as determined by this assay protocol are shown in Table 2.

T1 sequence (P42336 whole entry): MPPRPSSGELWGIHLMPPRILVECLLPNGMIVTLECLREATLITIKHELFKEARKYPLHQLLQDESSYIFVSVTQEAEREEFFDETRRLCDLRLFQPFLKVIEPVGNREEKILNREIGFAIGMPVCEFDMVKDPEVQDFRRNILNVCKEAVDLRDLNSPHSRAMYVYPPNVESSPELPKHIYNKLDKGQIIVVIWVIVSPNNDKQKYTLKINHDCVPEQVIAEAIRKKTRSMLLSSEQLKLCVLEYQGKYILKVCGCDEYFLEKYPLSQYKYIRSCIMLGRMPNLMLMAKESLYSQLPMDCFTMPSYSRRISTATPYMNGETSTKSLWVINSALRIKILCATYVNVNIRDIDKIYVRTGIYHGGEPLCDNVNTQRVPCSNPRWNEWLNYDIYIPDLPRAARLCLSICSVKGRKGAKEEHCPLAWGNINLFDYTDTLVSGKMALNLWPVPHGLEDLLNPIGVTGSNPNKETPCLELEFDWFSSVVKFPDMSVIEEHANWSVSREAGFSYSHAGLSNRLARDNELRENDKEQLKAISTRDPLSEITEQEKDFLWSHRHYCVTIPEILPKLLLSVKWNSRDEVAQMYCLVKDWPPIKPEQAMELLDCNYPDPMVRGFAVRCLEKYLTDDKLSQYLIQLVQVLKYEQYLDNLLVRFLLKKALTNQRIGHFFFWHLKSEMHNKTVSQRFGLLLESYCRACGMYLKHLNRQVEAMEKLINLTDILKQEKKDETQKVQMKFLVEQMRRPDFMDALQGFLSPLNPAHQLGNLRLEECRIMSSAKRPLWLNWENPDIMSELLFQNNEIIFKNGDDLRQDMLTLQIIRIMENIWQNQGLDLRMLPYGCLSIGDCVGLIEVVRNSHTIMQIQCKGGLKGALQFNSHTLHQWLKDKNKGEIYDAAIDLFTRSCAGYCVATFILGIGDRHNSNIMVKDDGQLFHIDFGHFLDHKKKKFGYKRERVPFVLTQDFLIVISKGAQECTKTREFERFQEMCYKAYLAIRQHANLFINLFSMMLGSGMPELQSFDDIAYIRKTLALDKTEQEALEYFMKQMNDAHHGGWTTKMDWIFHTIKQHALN
T1 sequence (P27986 whole entry partner): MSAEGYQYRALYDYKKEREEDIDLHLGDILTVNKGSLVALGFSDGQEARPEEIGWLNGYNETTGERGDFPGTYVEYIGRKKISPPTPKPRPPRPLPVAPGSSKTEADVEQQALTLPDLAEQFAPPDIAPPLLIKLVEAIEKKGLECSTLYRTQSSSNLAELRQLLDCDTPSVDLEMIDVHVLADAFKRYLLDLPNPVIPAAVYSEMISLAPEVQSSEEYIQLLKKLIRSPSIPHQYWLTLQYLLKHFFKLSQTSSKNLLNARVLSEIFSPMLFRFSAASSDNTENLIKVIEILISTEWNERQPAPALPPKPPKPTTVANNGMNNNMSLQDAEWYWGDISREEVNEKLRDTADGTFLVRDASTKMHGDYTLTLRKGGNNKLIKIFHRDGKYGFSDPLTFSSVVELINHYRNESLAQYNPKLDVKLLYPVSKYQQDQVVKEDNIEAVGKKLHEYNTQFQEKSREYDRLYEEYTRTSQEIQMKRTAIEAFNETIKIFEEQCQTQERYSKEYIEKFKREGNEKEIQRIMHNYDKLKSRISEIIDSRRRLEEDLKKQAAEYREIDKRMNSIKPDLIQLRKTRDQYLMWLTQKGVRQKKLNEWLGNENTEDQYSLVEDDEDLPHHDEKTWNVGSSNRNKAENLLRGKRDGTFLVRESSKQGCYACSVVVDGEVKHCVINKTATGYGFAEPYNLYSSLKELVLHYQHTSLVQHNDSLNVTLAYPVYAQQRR

| SMILES | IC50 [1] | IC50 (mTOR kinase) | IC50 (PC3 cells) |
| --- | --- | --- | --- |
| COc1ccc(-c2ccc3c(N4CCOCC4)nc(-c4ccc(NC(=O)Nc5ccc(C(=O)N(C)C)cc5)cc4)nc3c2)cn1 [Example 60, 4-(3-{4-[7-(6-methoxy-pyridin-3-yl)-4-morpholin-4-yl-quinazolin-2-yl]-phenyl}-ureido)-N,N-dimethyl-benzamide] | < 50 nM | < 50 nM | 100 to 500 nM |
| CN1CCN(C(=O)c2ccc(NC(=O)Nc3ccc(-c4nc(N5CCOCC5)c5ncc(-c6cncnc6)cc5n4)cc3)cc2)CC1 [Example 67, 1-[4-(4-methyl-piperazine-1-carbonyl)-phenyl]-3-[4-(4-morpholin-4-yl-7-pyrimidin-5-yl-pyrido[3,2-d]pyrimidin-2-yl)-phenyl]-urea] | < 50 nM | < 50 nM | 100 to 500 nM |
| Cc1ccc(-c2ccc3c(N4CCOCC4)nc(-c4ccc(NC(=O)Nc5ccc(C(=O)N6CCN(C)CC6)cc5)cc4)nc3c2)o1 [Example 70, 1-{4-[7-(5-methyl-furan-2-yl)-4-morpholin-4-yl-quinazolin-2-yl]-phenyl}-3-[4-(4-methyl-piperazine-1-carbonyl)-phenyl]-urea] | 50 to 200 nM | 50 to 200 nM | 501 to 5000 nM |
| CN1CCN(C(=O)c2ccc(NC(=O)Nc3ccc(-c4nc(N5CCOCC5)c5ncc(-c6cnn(C)c6)cc5n4)cc3)cc2)CC1 [Example 73, 1-[4-(4-methyl-piperazine-1-carbonyl)-phenyl]-3-{4-[7-(1-methyl-1H-pyrazol-4-yl)-4-morpholin-4-yl-pyrido[3,2-d]pyrimidin-2-yl]-phenyl}-urea] | < 50 nM | < 50 nM | 501 to 5000 nM |
| CN1CCN(C(=O)c2ccc(NC(=O)Nc3ccc(-c4nc(N5CCOCC5)c5ccc(-c6cncnc6)cc5n4)cc3)cc2)CC1 [Example 79, 1-[4-(4-methyl-piperazine-1-carbonyl)-phenyl]-3-[4-(4-morpholin-4-yl-7-pyrimidin-5-yl-quinazolin-2-yl)-phenyl]-urea] | 201 to 10000 nM | < 50 nM | 501 to 5000 nM |
| Cc1ccncc1-c1cnc2c(N3CCOCC3)nc(-c3ccc(NC(=O)Nc4ccc(C(=O)N(C)C)cc4)c(F)c3)nc2c1 [Example 116, 4-(3-(2-fluoro-4-(7-(4-methylpyridin-3-yl)-4-morpholino-pyrido[3,2-d]pyrimidin-2-yl)phenyl)ureido)-N,N-dimethyl-benzamide] | 50 to 200 nM | 50 to 200 nM | 501 to 5000 nM |
| CN(C)C(=O)c1ccc(NC(=O)Nc2ccc(-c3nc(N4CCOCC4)c4ncc(-c5cnn(C)c5)cc4n3)cc2F)cn1 [Example 124, 5-(3-(2-fluoro-4-(7-(1-methyl-1H-pyrazol-4-yl)-4-morpholino-pyrido[3,2-d]pyrimidin-2-yl)phenyl)ureido)-N,N-dimethylpicolinamide] | < 50 nM | < 50 nM | 201 to 10000 nM |
| Cc1noc(C)c1-c1cnc2c(N3CCOCC3)nc(-c3ccc(NC(=O)Nc4ccc(C(=O)N(C)C)cc4)c(F)c3)nc2c1 [Example 135, 4-(3-(4-(7-(3,5-dimethylisoxazol-4-yl)-4-morpholino-pyrido[3,2-d]pyrimidin-2-yl)-2-fluorophenyl)ureido)-N,N-dimethyl-benzamide] | < 50 nM | < 50 nM | 201 to 10000 nM |
| CC1CN(c2nc(-c3ccc(NC(=O)Nc4ccc(C(=O)N(C)C)cc4)cc3)nc3cc(-c4cncnc4)ccc23)CCO1 (stereo not drawn) [Example 138, N,N-dimethyl-4-(3-(4-(4-(2-methylmorpholino)-7-(pyrimidin-5-yl)quinazolin-2-yl)phenyl)ureido)-benzamide] | < 50 nM | < 50 nM | 201 to 10000 nM |
| Cc1noc(C)c1-c1cc2nc(-c3ccc(NC(=O)Nc4ccc(C(=O)N(C)C)cc4)cc3)nc(N3CCOCC3)c2cc1F [Example 143, 4-(3-(4-(7-(3,5-dimethylisoxazol-4-yl)-6-fluoro-4-morpholino-quinazolin-2-yl)phenyl)ureido)-N,N-dimethyl-benzamide] | 50 to 200 nM | < 50 nM | 201 to 10000 nM |
| CNC(=O)c1ccc(NC(=O)Nc2ccc(-c3nc(N4CCOCC4)c4ccc(-c5ccco5)cc4n3)cc2)cc1 [Example 233, 4-(3-(4-(7-(furan-2-yl)-4-morpholine-quinazolin-2-yl)phenyl)ureido)-N-methyl-benzamide] | < 50 nM | 50 to 200 nM | < 100 nM |
| CN(C)C(=O)c1ccc(NC(=O)Nc2ccc(-c3nc(N4CCOCC4)c4ncc(-c5cncnc5)cc4n3)c(F)c2)cc1 [Example 250, 4-(3-(3-fluoro-4-(4-morpholino-7-(pyrimidin-5-yl)pyrido[3,2-d]pyrimidin-2-yl)phenyl)ureido)-N,N-dimethyl-benzamide] | < 50 nM | < 50 nM | 201 to 10000 nM |
| CN(C)C(=O)c1ccc(NC(=O)Nc2ccc(-c3nc(N4CCOCC4)c4cc(F)c(-c5cncnc5)cc4n3)c(F)c2)cc1 [Example 256, 4-(3-(3-fluoro-4-(6-fluoro-4-morpholino-7-(pyrimidin-5-yl)quinazolin-2-yl)phenyl)ureido)-N,N-dimethyl-benzamide] | 50 to 200 nM | 50 to 200 nM | 201 to 10000 nM |

Now from value to molecule:

| IC50 [1] | IC50 (mTOR kinase) | IC50 (PC3 cells) | SMILES |
| --- | --- | --- | --- |
| < 50 nM | < 50 nM | 501 to 5000 nM | CN(C)C(=O)c1ccc(NC(=O)Nc2ccc(-c3nc(N4CCOCC4)c4ccc(-c5ccnc(F)c5)cc4n3)cc2)cc1 [Example 68, 4-(3-{4-[7-(2-fluoro-pyridin-4-yl)-4-morpholin-4-yl-quinazolin-2-yl]-phenyl}-ureido)-N,N-dimethyl-benzamide] |
| < 50 nM | 50 to 200 nM | 501 to 5000 nM | CN(C)C(=O)c1ccc(NC(=O)Nc2ccc(-c3nc(N4CCOCC4)c4ccc(-c5cccs5)cc4n3)cc2)cc1 [Example 74, N,N-dimethyl-4-{3-[4-(4-morpholin-4-yl-7-thiophen-2-yl-quinazolin-2-yl)-phenyl]-ureido}-benzamide] |
| < 50 nM | < 50 nM | < 100 nM | COc1ncc(-c2ccc3c(N4CCOCC4)nc(-c4ccc(NC(=O)Nc5ccc(C(=O)N(C)C)cc5)cc4)nc3c2)cn1 [Example 75, 4-(3-{4-[7-(2-methoxy-pyrimidin-5-yl)-4-morpholin-4-yl-quinazolin-2-yl]-phenyl}-ureido)-N,N-dimethyl-benzamide] |
| < 50 nM | < 50 nM | 201 to 10000 nM | CN(C)C(=O)c1ccc(NC(=O)Nc2ccc(-c3nc(N4CCOCC4)c4ccc(-c5cnc(N(C)C)nc5)cc4n3)cc2)cc1 [Example 226, 4-(3-(4-(7-(2-(dimethylamino)pyrimidin-5-yl)-4-morpholino-quinazolin-2-yl)phenyl)ureido)-N,N-dimethyl-benzamide] |
| < 50 nM | < 50 nM | 201 to 10000 nM | CN(C)C(=O)c1ccc(NC(=O)Nc2ccc(-c3nc(N4CCOCC4)c4ccc(-c5cncnc5)cc4n3)cc2)cc1F [Example 240, 2-fluoro-N,N-dimethyl-4-(3-(4-(4-morpholino-7-(pyrimidin-5-yl)quinazolin-2-yl)phenyl)ureido)-benzamide] |
| < 50 nM | 50 to 200 nM | 201 to 10000 nM | CN(C)C(=O)c1ccc(NC(=O)Nc2ccc(-c3nc(N4CCOCC4)c4ccc(-c5cccc(S(C)(=O)=O)c5)cc4n3)c(F)c2)cc1 [Example 245, 4-(3-(3-fluoro-4-(7-(3-(methylsulfonyl)phenyl)-4-morpholino-quinazolin-2-yl)phenyl)ureido)-N,N-dimethyl-benzamide] |
| 50 to 200 nM | < 50 nM | 201 to 10000 nM | CN(C)C(=O)c1ccc(NC(=O)Nc2ccc(-c3nc(N4CCOCC4)c4ccc(-c5cccnc5F)cc4n3)cc2)cc1F [Example 255, 2-fluoro-4-(3-(4-(7-(2-fluoropyridin-3-yl)-4-morpholino-quinazolin-2-yl)phenyl)ureido)-N,N-dimethyl-benzamide] |
| < 50 nM | < 50 nM | 201 to 10000 nM | COc1ncc(-c2ccc3c(N4CCOCC4)nc(-c4ccc(NC(=O)Nc5ccc(C(=O)N(C)C)c(F)c5)cc4)nc3c2)cn1 [Example 257, 2-fluoro-4-(3-(4-(7-(2-methoxypyrimidin-5-yl)-4-morpholino-quinazolin-2-yl)phenyl)ureido)-N,N-dimethyl-benzamide] |
| 50 to 200 nM | < 50 nM | 201 to 10000 nM | COc1ccc(-c2ccc3c(N4CCOCC4)nc(-c4ccc(NC(=O)Nc5ccc(C(=O)N(C)C)c(F)c5)cc4)nc3c2)cn1 [Example 259, 2-fluoro-4-(3-(4-(7-(6-methoxypyridin-3-yl)-4-morpholino-quinazolin-2-yl)phenyl)ureido)-N,N-dimethyl-benzamide] |
| < 50 nM | < 50 nM | 201 to 10000 nM | CN(C)C(=O)c1ccc(NC(=O)Nc2ccc(-c3nc(N4CCOCC4)c4ccc(-c5cccnc5)cc4n3)cc2)cc1F [Example 260, 2-fluoro-N,N-dimethyl-4-(3-(4-(4-morpholino-7-(pyridin-3-yl)quinazolin-2-yl)phenyl)ureido)-benzamide] |
